# Legend:
# Assay type in all cases: biochemical
# Potato acid phosphatase = test: Phosphate release from substrate by enzyme, microtitre plate, molybdate detection; conditions: 10 mM substrate, pH 5.5, 1 h, 37° C.
# Description: (§1) Enzymatic assays were carried out in microtitre plates in 100 μl of reaction mixture. The reaction mixture for acid phytases and phosphatases included: 10 mM of substrate in 200 mM sodium acetate buffer, pH 5.5 containing 0.8 mM CaCl2. For alkaline phytases and phosphatases the same conditions were used except sodium acetate buffer was replaced with 200 mM Tris*HCl buffer, pH 7.5. The reactions were allowed to proceed for 1 h at 37° C. after which time the released phosphate was measured by a modification of a known procedure (Heinonen J. K., Lahti R. J. Anal Biochem. 113 (2), 313-317 (1981)). Briefly, 200 pLI of a freshly prepared AMM solution ([…], 15 mM ammonium molybdate and acetone—1:1:2) was added to the 100 μl reaction mixture in each microtitre plate well. The absorbance at 390 nm was measured not earlier than 10 min and not later than 30 min after addition of the AMM reagent. The amount of phosphate was determined by building a calibration curve with phosphate solutions of known concentrations.
# (§2) Both phytases and phosphatases catalyse the hydrolysis of phosphoesters. Thus, the difference between these two groups of enzymes is quantitative rather than qualitative and can be defined as the relative efficiency in hydrolysis of phytate and simple monophosphoesters such as e.g. glucose 6-phosphate or fructose 6-phosphate. Phosphatases tend to be relatively inefficient in hydrolysing phytate, and, conversely, most phytases hydrolyse mono-substituted sugar phosphates inefficiently. To test whether polyphosphorylated polyhydroxybenzenes can be used as mimics of phytate we have tested phosphate release from hexaphospho-benzenehexaol and fructose 6-phosphate by several different phytases and phosphatases. Phytases from Aspergillus niger (Natuphos^R), Escherichia coli (Phyzyme XP^R) and Peniophora lycii (Ronozyme^R) as well as potato acid phosphatase were assayed at pH 5.5 while alkaline bacterial phosphatase calf intestinal phosphatase and shrimp phosphatase were assayed at pH 7.5.
# [1] = test system: Peniophora lycii phytase (Ronozyme^R); test: as above; conditions: 10 mM substrate, pH 5.5, 1 h, 37° C.
# Description: as §1, §2
# [2] = target: Bacterial alkaline phosphatase (Escherichia coli, UniProt P00634); test: as above; conditions: 10 mM substrate, pH 7.5, 1 h, 37° C.
# Description: as §1, §2
# [3] = target: T1, E. coil phytase (Phyzyme XP^R) (Escherichia coli, UniProt P07102); test: as above; conditions: 10 mM substrate, pH 5.5, 1 h, 37° C.
# T1 construct: purchased
# Description: as §1, §2
# Shrimp phosphatase = test: as above; conditions: 10 mM substrate, pH 7.5, 1 h, 37° C.
# Description: as §1, §2
# [4] = test system: Calf intestine phosphatase; test: as above; conditions: 10 mM substrate, pH 7.5, 1 h, 37° C.
# Description: as §1, §2
# [5] = target: T2, A. niger phytase (Natuphos^R) (Aspergillus niger, UniProt P34752); test: as above; conditions: 10 mM substrate, pH 5.5, 1 h, 37° C.
# T2 construct: purchased
# Description: as §1, §2
# all tested phytases = test: Phosphate release from substrate, summary for all tested phytases; conditions: compared with fructose 6-phosphate
# Description: as §1
# (§3) Both phytases and phosphatases catalyse the hydrolysis of phosphoesters. Thus, the difference between these two groups of enzymes is quantitative rather than qualitative and can be defined as the relative efficiency in hydrolysis of phytate and simple monophosphoesters such as e.g. glucose 6-phosphate or fructose 6-phosphate. […]
# typical phosphatases = test: Phosphate release from substrate, summary for typical phosphatases; conditions: all tested typical phosphatases, compared with fructose 6-phosphate
# Description: as §1, §3
# T1 sequence (P07102 23-432): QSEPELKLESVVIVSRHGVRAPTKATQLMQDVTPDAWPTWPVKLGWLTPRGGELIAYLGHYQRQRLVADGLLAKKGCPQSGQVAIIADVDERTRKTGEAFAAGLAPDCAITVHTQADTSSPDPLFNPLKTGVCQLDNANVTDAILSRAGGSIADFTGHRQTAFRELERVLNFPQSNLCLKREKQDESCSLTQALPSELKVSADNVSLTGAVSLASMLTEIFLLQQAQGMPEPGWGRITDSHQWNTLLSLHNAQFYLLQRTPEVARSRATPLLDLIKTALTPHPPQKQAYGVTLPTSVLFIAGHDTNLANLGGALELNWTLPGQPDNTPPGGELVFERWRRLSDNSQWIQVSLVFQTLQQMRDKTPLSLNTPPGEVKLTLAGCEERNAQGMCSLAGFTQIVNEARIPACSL
# Sequence of Bacterial alkaline phosphatase (P00634 22-471): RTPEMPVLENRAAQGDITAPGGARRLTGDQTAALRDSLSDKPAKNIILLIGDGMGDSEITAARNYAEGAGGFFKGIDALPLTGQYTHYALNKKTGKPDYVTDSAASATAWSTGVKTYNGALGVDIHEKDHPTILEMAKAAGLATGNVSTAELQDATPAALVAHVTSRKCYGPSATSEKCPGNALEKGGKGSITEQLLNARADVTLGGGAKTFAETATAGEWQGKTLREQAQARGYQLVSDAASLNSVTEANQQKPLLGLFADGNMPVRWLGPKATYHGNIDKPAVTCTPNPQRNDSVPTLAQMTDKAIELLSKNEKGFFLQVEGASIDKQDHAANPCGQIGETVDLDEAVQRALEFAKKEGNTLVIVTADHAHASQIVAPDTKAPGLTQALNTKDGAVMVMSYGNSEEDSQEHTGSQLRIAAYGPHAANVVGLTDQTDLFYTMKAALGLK
# T2 sequence (P34752 24-467): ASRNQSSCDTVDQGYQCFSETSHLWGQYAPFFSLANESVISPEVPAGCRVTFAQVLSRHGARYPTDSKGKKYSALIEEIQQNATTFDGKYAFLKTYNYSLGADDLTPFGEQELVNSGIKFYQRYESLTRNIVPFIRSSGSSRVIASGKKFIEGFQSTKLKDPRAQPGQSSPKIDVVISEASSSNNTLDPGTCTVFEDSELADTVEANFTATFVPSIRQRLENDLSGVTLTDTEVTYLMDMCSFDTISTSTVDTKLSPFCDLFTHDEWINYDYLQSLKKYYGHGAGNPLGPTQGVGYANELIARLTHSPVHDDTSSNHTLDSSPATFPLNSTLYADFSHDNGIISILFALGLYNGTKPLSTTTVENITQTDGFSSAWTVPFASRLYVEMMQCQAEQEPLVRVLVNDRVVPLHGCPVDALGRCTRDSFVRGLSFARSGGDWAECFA
Compound,Ratio of phosphate-releasing activities with the substrate and fructose 6-P (Potato acid phosphatase),Ratio of phosphate-releasing activities with the substrate and fructose 6-P [1],Ratio of phosphate-releasing activities with the substrate and fructose 6-P [2],Ratio of phosphate-releasing activities with the substrate and fructose 6-P [3],Ratio of phosphate-releasing activities with the substrate and fructose 6-P (Shrimp phosphatase),Ratio of phosphate-releasing activities with the substrate and fructose 6-P [4],Ratio of phosphate-releasing activities with the substrate and fructose 6-P [5],Quality as substrate for all tested phytases (in words) (all tested phytases),Quality as substrate for typical phosphatases (in words) (typical phosphatases)
O=P(O)(O)Oc1cc(OP(=O)(O)O)cc(OP(=O)(O)O)c1,3.9,250,1.0,500,3.8,1.0,280,good substrate,good substrate
"O=P(O)(O)Oc1c(OP(=O)(O)O)c(OP(=O)(O)O)c(OP(=O)(O)O)c(OP(=O)(O)O)c1OP(=O)(O)O [benzenehexaol hexaphosphate, Benzenehexaol hexaphosphate]",0.23,2.7,0.01,122,0.1,0.01,250,much better substrate than fructose 6-phosphate,the opposite is true

# Reference: patent US20090098589A1 (priority 2006, published 2009)
